Active and inactive are the calls of the source. The rule behind the calls is not given here.
How the values were obtained:
HeLa [1] = assay: Induction of cell cycle arrest in Homo sapiens (human) HeLa cells assessed as accumulation of cells at sub-G1 phase at 25 uM after 24 hr by propidium iodide staining based flow cytometry in presence of 50 uM CuCl2 (reference value: 3.22%); format: functional
HeLa [2] = assay: Induction of cell cycle arrest in Homo sapiens (human) HeLa cells assessed as accumulation of cells at sub-G1 phase at 25 uM after 24 hr by propidium iodide staining based flow cytometry (reference value: 3.41%); format: functional
HeLa [3] = assay: Antiproliferative activity against Homo sapiens (human) HeLa cells assessed as growth inhibition at 25 uM after 48 hr by MTT assay in presence of 50 uM CuCl2; format: functional
HeLa [4] = assay: Antiproliferative activity against Homo sapiens (human) HeLa cells assessed as growth inhibition at 25 uM after 48 hr by MTT assay; format: functional, cell-based
HeLa [5] = assay: Induction of apoptosis in Homo sapiens (human) HeLa cells assessed as PARP cleavage at 15 uM after 24 hr by Western blot analysis in presence of 50 uM CuCl2; format: functional, cell-based
HeLa [6] = assay: Induction of cell cycle arrest in Homo sapiens (human) HeLa cells assessed as accumulation of cells at sub-G1 phase at 15 uM after 24 hr by propidium iodide staining based flow cytometry in presence of 50 uM CuCl2 (reference value: 3.22%); format: functional
HeLa [7] = assay: Induction of cell cycle arrest in Homo sapiens (human) HeLa cells assessed as accumulation of cells at sub-G1 phase at 15 uM after 24 hr by propidium iodide staining based flow cytometry (reference value: 3.41%); format: functional
HeLa [8] = assay: Induction of cell cycle arrest in Homo sapiens (human) HeLa cells assessed as accumulation of cells at sub-G1 phase at 5 uM after 24 hr by propidium iodide staining based flow cytometry in presence of 50 uM CuCl2 (reference value: 3.22%); format: functional
HeLa [9] = assay: Induction of cell cycle arrest in Homo sapiens (human) HeLa cells assessed as accumulation of cells at sub-G1 phase at 5 uM after 24 hr by propidium iodide staining based flow cytometry (reference value: 3.41%); format: functional
HeLa [10] = assay: Antiproliferative activity against Homo sapiens (human) HeLa cells assessed as growth inhibition after 48 hr by MTT assay in presence of 50 uM CuCl2; format: functional
HeLa [11] = assay: Antiproliferative activity against Homo sapiens (human) HeLa cells assessed as growth inhibition at 75 uM after 48 hr by MTT assay; format: functional; conditions: read-out: GI
[12] = target: MAP kinase p38 (Homo sapiens) (UniProt O15264+Q15759+Q16539+P53778); assay: Increase in p38 MAPK phosphorylation in Homo sapiens (human) HeLa cells at 15 uM after 24 hr by Western blot analysis in presence of 50 uM CuCl2; format: cell-based
HeLa [13] = assay: Increase in ERK phosphorylation in Homo sapiens (human) HeLa cells at 15 uM after 24 hr by Western blot analysis in presence of 50 uM CuCl2; format: cell-based
HeLa [14] = assay: Induction of apoptosis in Homo sapiens (human) HeLa cells assessed as decrease in 32 kDa procaspase-3 level at 15 uM after 24 hr by Western blot analysis in presence of 50 uM CuCl2; format: functional, cell-based
HeLa [15] = assay: Antiproliferative activity against Homo sapiens (human) HeLa cells assessed as growth inhibition after 48 hr by MTT assay; format: functional

O=c1cc(CO)occ1O [KOJIC ACID]
Activity (HeLa [1]): 3.57% | Activity (HeLa [2]): 2.16% | growth inhibition (GI) (HeLa [3]): inactive | growth inhibition (GI) (HeLa [4]): inactive

O=c1cc(CN2CCN(S(=O)(=O)c3ccccc3)CC2)occ1O
growth inhibition (GI) (HeLa [3]): 35%

O=c1cc(COc2cccc3cccnc23)occ1O
Activity (HeLa [5]): Active | Activity (HeLa [6]): 48.56% | Activity (HeLa [7]): 5.85% | Activity (HeLa [8]): 11.58% | Activity (HeLa [9]): 5.09% | GI50 (HeLa [10]): 7.1 µM | inhibition of growth at 75 µM (HeLa [11]): 15.2% | growth inhibition (GI) (HeLa [3]): 95% | growth inhibition (GI) (HeLa [4]): inactive | Activity [12]: Active | Activity (HeLa [13]): Active | Activity (HeLa [14]): Active

O=c1cc(COc2cccc(O)c2)occ1O
growth inhibition (GI) (HeLa [3]): inactive | growth inhibition (GI) (HeLa [4]): inactive

O=c1cc(/C=C/c2ccc(O)c(O)c2)occ1O
growth inhibition (GI) (HeLa [3]): inactive | growth inhibition (GI) (HeLa [4]): inactive

COc1ccc(COc2coc(/C=C/c3ccccc3)cc2=O)cc1
growth inhibition (GI) (HeLa [3]): inactive

O=c1cc(/C=C/c2ccccc2)occ1O
GI50 (HeLa [10]): 11.9 µM | GI50 (HeLa [15]): 64.5 µM | growth inhibition (GI) (HeLa [3]): 90% | growth inhibition (GI) (HeLa [4]): inactive

From ChEMBL document CHEMBL3045358, “Synthesis of kojic acid-derived copper-chelating apoptosis inducing agents” (2013)
